Among the data in US7462644B2, “Therapeutic agents” (AstraZeneca AB, priority 2002, dated 2008) are EC50 values, retold here.

The structures appear in SMILES notation.

For the test, the target named is T1, human PPAR alpha (Homo sapiens, UniProt Q07869).
T1 sequence (Q07869 1-468): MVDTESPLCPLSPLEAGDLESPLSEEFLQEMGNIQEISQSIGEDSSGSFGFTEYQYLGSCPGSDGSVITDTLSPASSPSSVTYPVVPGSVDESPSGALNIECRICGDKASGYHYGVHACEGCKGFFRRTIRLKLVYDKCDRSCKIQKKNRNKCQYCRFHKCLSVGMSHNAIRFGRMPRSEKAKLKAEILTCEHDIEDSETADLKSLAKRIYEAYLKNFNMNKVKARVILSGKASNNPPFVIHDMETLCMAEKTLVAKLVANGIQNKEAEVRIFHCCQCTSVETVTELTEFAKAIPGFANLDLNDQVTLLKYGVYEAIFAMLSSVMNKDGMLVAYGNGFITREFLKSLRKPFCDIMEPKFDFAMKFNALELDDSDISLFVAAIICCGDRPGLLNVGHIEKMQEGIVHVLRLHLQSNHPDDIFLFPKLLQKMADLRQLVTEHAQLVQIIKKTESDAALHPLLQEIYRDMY
Briefly: PPARα EC50 assay (assays described in WO03/051821). It counts as cell-based. As to the method:
The compounds of the invention were tested in the assays described in WO03/051821.
Consider `CCCCN(Cc1ccc(C(F)(F)F)cc1F)C(=O)COc1ccc(C[C@H](OCC)C(=O)O)cc1` [Example 1, (2S)-3-[4-(2-{Butyl[2-fluoro-4-(trifluoromethyl)benzyl]amino}-2-oxoethoxy)phenyl]-2-ethoxy propanoic Acid], for which the EC50 – broadly, the concentration giving half of the maximal effect – is 1 nM.

In turn, `CCO[C@@H](Cc1ccc(OCC(=O)N(CC)Cc2ccc(Cl)cc2)cc1)C(=O)O` [Example 2, (2S)-3-(4-{2-[(4-Chlorobenzyl)(ethyl)amino]-2-oxoethoxy}phenyl)-2-ethoxypropanoic Acid] yielded a half-maximal effective concentration (EC50) of 3 nM. This EC50 is about 3-fold higher than that of the compound before.

In turn, `CCO[C@@H](Cc1ccc(OCC(=O)N(CC)Cc2ccc(OC(F)(F)F)cc2)cc1)C(=O)O` [Example 3] returned an EC50 of 3 nM.

`CCO[C@@H](Cc1ccc(OCC(=O)N(CC)Cc2ccc(C(F)(F)F)cc2)cc1)C(=O)O` [Example 4, (2S)-2-Ethoxy-3-[4-(2-{ethyl[4-(trifluoromethyl)benzyl]amino}-2-oxoethoxy)phenyl]propanoic Acid] came in with an EC50 of 5 nM.

As to `CCCCN(Cc1ccc(C(F)(F)F)cc1)C(=O)COc1ccc(C[C@H](OCC)C(=O)O)cc1` [Example 5], a half-maximal effect (EC50) was put at 3 nM.
